According to US9790496B2, “Microrna compounds and methods for modulating MIR-21 activity” (Regulus Therapeutics, Inc., priority 2011, dated 2017):
Values joined by “and” are separate entries in the source; they are usually repeats but may differ in a detail not shown here. Identical values can stand only once.

Tested on: collagen 1A1 and collagen 3A1 expression in kidney, ischemia reperfusion injury (IRI) model
Test: Unilateral ischemia reperfusion injury (IRI) model: kidney collagen 1A1 and collagen 3A1 expression
Assay type: in vivo, mouse
Procedure: A model of ischemia reperfusion injury (IRI) is created in the mouse through unilateral or bilateral clamping of kidney arteries, which leads to tubule damage, inflammation, and fibrosis. Kidney dysfunction can occur either early (<5 days) or late (>7 days) in this model, with the early time points useful to test candidate agents for the treatment of acute kidney injury, and the later time points useful to model chronic fibrosis.
Anti-miR-21 compounds were tested in the unilateral IRI model. Unilateral IRI was induced for a period of 30 minutes. Treatment groups were as follows: sham IRI procedure; IRI with PBS administered subcutaneously; IRI with anti-miR-21 compound 25070 administered intraperitoneally at a dose of 20 mg/kg; the 2′-fluoro/2′-MOE modified anti-miR-21 25919 administered intraperitoneally at a dose of 20 mg/kg; and a 2′-fluoro/2′ modified mismatch anti-miR-21 (having three mismatches to the sequence of miR-21) 25319 administered intraperitoneally at a dose of 20 mg/kg. PBS or anti-miR compound was administered on days 5, 6, and 7 following IRI, and animals were sacrificed 14 days after IRI. As anti-miR compound is administered 5 days following the injury to the kidney, or later, when fibrosis has already occurred to some extent, this treatment regimen is considered a therapeutic regimen, rather than a prophylactic regimen.
Kidney tissue was collected for analysis of collagen 1A1 and collagen 3A1 expression (shown in Table O), and collagen area fraction (shown in Table P).
A similar study was performed with the same treatment groups and additional days of treatment. In this study, treatments were administered intraperitoneally at days 5, 6, 7, 14, and 21 following the IRI procedure Animals were sacrificed on Day 27, and kidney tissue was collected for analysis of collagen 1A1 and collagen 3A1 expression, as well as collagen area fraction.
In order to assess the flexibility of administration of the anti-miR-21 compound 25070, the activity of the compound in the 14 day study above, where anti-miR-21 was administered at […] following the IRI procedure, to a different 14 day study where anti-miR-21 was administered intraperitoneally at days 3, 5, and 7 following the IRI procedure.

[1] = IRI, 14 day study, dosing Day 3, 5, 7 intraperitoneally, fold change relative to sham
[2] = unilateral IRI, 20 mg/kg intraperitoneally on days 5, 6, 7, sacrifice 14 days after IRI, 20 mg/kg
[3] = unilateral IRI, intraperitoneally on days 5, 6, 7, 14, 21, sacrifice Day 27

## AECSATCSAGTCSTGAUSAAGCSTAE (ACATCAGTCTGATAAGCTA; modified nucleosides coded in name, code key not given here) [Compound 25070]
IRI, 14 day studies, two dosing schedules compared (days 3, 5, 7 i.p.)
  reduction of collagen 1A1 or collagen 3A1 expression relative to sham (in words): statistically significant reduction of collagen expression with either dosing schedule
[1]
  Collagen 1A1 (Normalized Expression), individual animal: 37.5 and 21.9 and 35.3 and 26.0 and 24.9 and 16.8 and 30.8 and 34.3 and 36.8 and 9.4 and 28.0 and 24.6
  Collagen 3A1 (Normalized Expression), individual animal: 35.3 and 23.6 and 32.1 and 25.1 and 31.3 and 18.6 and 30.3 and 37.6 and 40.0 and 9.5 and 23.2 and 28.7
[2]
  Collagen 1A1 (Normalized Expression), individual animal: 81.7 and 57.4 and 37.9 and 55.3 and 22.3 and 52.4 and 53.0 and 41.5
  Collagen 3A1 (Normalized Expression), individual animal: 57.8 and 18.1 and 39.3 and 36.0 and 20.6 and 38.6 and 33.4 and 29.7
[3]
  Collagen 1A1 (Normalized Expression), individual animal: 26.4 and 37.4 and 41.9 and 36.8 and 14.1 and 27.7 and 29.4 and 37.6
  Collagen 3A1 (Normalized Expression), individual animal: 16.4 and 27.0 and 28.5 and 19.6 and 11.3 and 19.3 and 21.4 and 23.1
